Experimental data as given in the supplement of paper PMC3937590.

Experiments:
Assay in all cases: -log10 GI50 (growth inhibition 50%) (-log10(M)); higher = more potent growth inhibition
[1] = test system: HCC3153
Summary of the method: (§1)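 Dose-response data came from breast cancer cell lines exposed to each compound for 72 hours at nine doses in 1:5 serial dilution, in triplicate, and read by luminescence relative to a time-zero plate. A Gompertz curve fitted by nonlinear least squares gave GI50, the molar concentration for the set level of growth inhibition, reported as its negative logarithm to base 10. Where a value equals the top dose, it carries a < qualifier.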

[2] = test system: MDAMB134VI
Summary of the method: as §1

[3] = test system: HBL100
Summary of the method: as §1

[4] = test system: SUM149PT
Summary of the method: as §1

[5] = test system: T4
Summary of the method: as §1

[6] = test system: ZR7530
Summary of the method: as §1

[7] = test system: HCC1569
Summary of the method: as §1

[8] = test system: MDAMB436
Summary of the method: as §1

[9] = test system: MDAMB468
Summary of the method: as §1

[10] = test system: SUM1315MO2
Summary of the method: as §1

[11] = test system: HCC1395
Summary of the method: as §1

[12] = test system: MCF10F
Summary of the method: as §1

[13] = test system: MCF10A
Summary of the method: as §1

[14] = test system: UACC893
Summary of the method: as §1

[15] = test system: S1
Summary of the method: as §1

[16] = test system: HCC202
Summary of the method: as §1

[17] = test system: SUM225CWN
Summary of the method: as §1

Compound | -log10 GI50 [1] | -log10 GI50 [2] | -log10 GI50 [7] | -log10 GI50 [8] | -log10 GI50 [9] | -log10 GI50 [11] | -log10 GI50 [16] | -log10 GI50 [3] | -log10 GI50 [4] | -log10 GI50 [5] | -log10 GI50 [6] | -log10 GI50 [10] | -log10 GI50 [12] | -log10 GI50 [13] | -log10 GI50 [14] | -log10 GI50 [15] | -log10 GI50 [17]
O=C(O)C1(C(=O)O)CCC1.[NH2-].[NH2-].[Pt+2] [Carboplatin] | 4.45 | 3.66 | 3.96 | 4.29 | 4.32 | 5 | 4.44 | 4.15 | 4.82 | 4.08 | 4.55 | 4.57 | 4.41 | 4.2 | 3.04 | 4.48 | –
C#Cc1cccc(Nc2ncnc3cc(OCCOC)c(OCCOC)cc23)c1 [Erlotinib] | 4.51 | < 4.18 | 4.78 | – | – | 4.53 | 5.57 | < 4.18 | 5.7 | – | – | 5.03 | 6.54 | 5.97 | – | – | 4.89
O=C1NC(=O)/C(=C/c2ccc3nccc(-c4ccncc4)c3c2)S1 | 5.54 | 6.33 | 5.94 | 6.09 | 6.03 | 5.61 | 7.31 | 5.42 | 6.01 | 7.31 | 6.82 | 6.49 | 6.71 | 6.57 | 7.24 | 7.04 | –
COc1cc2ncnc(Nc3cccc(Cl)c3)c2cc1OC [AG1478] | < 3.78 | 4.32 | 5.26 | 4.09 | < 3.78 | 4.15 | 5.75 | < 3.78 | 5.93 | – | – | 6.08 | 6.69 | 6.65 | 6.39 | 7.25 | –
CCc1c2c(nc3ccc(OC(=O)N4CCC(N5CCCCC5)CC4)cc13)-c1cc3c(c(=O)n1C2)COC(=O)[C@]3(O)CC [CPT-11] | 4.73 | 4.94 | 4.62 | 5.18 | 4.49 | 6 | 4.32 | 5.5 | – | 5.23 | < 4.13 | 5.34 | 5.18 | 5.7 | 4.22 | < 4.13 | –
COc1cc([C@@H]2c3cc4c(cc3[C@@H](O[C@@H]3O[C@@H]5CO[C@@H](C)O[C@H]5[C@H](O)[C@H]3O)[C@H]3COC(=O)[C@H]23)OCO4)cc(OC)c1O [Etoposide] | 5.57 | 5.61 | 4.2 | – | – | 5.53 | 6.03 | 5.67 | 5.58 | – | – | 6.61 | 6.13 | 5.43 | – | – | 4.99
C=CCNC1=C2C[C@@H](C)C[C@H](OC)[C@H](O)[C@@H](C)/C=C(\C)[C@H](OC(N)=O)[C@@H](OC)/C=C\C=C(/C)C(=O)NC(=CC1=O)C2=O [17-AAG] | 6.82 | 7.42 | 6.84 | 5.96 | 5.64 | 6.54 | 8.27 | 5.97 | 7.01 | – | – | 7.72 | 7.5 | 7.4 | 7.77 | 6.89 | –
COc1cccc2c1C(=O)c1c(O)c3c(c(O)c1C2=O)C[C@@](O)(C(=O)CO)C[C@@H]3O[C@H]1C[C@H](N)[C@@H](O)[C@H](C)O1 [Epirubicin] | 6.19 | 5.98 | 6.06 | 5.92 | 6.15 | 6.14 | 6.26 | 6.88 | 6.66 | – | – | 7.44 | 6.32 | 6.71 | 6.11 | 6.42 | –
CC(C)C[C@H](NC(=O)[C@H](Cc1ccccc1)NC(=O)c1cnccn1)B(O)O [Bortezomib] | 7.9 | 8.08 | 8.12 | – | – | 8.15 | 8.14 | 7.35 | 8 | – | – | 7.75 | 7.59 | 6.64 | – | – | 8
CNC(=O)c1c(F)cccc1Nc1nc(Nc2cc3c(cc2OC)CCN3C(=O)CN(C)C)nc2[nH]ccc12 | 5.39 | 4.96 | 5.12 | – | – | 5.33 | 5.05 | 4.76 | 5.41 | – | – | 5.1 | 6.31 | 5.45 | – | – | 4.9

Now from value to compound, other results behind:

-log10 GI50 [1] | -log10 GI50 [2] | -log10 GI50 [7] | -log10 GI50 [8] | -log10 GI50 [9] | -log10 GI50 [11] | -log10 GI50 [16] | Compound | -log10 GI50 [3] | -log10 GI50 [4] | -log10 GI50 [5] | -log10 GI50 [6] | -log10 GI50 [10] | -log10 GI50 [12] | -log10 GI50 [13] | -log10 GI50 [14] | -log10 GI50 [15] | -log10 GI50 [17]
4.56 | 4.47 | 4.43 | – | – | 4.65 | 5.02 | COc1ccc(C2=N[C@@H](c3ccc(Cl)cc3)[C@@H](c3ccc(Cl)cc3)N2C(=O)N2CCNC(=O)C2)c(OC(C)C)c1 [Nutlin 3a] | 4.32 | 4.56 | – | – | 4.75 | 5.18 | 5.21 | – | – | 4.69
< 3.48 | < 3.48 | < 3.48 | – | – | < 3.48 | 7.69 | CN(Cc1cnc2nc(N)nc(N)c2n1)c1ccc(C(=O)N[C@@H](CCC(=O)O)C(=O)O)cc1 [Methotrexate] | < 3.48 | < 3.48 | – | – | < 3.48 | 7 | 7.39 | – | – | < 3.48
5.25 | 9.57 | 6.7 | 3.85 | 4.75 | 4.84 | 8.24 | CO[C@H]1C[C@@H]2CC[C@@H](C)[C@@](O)(O2)C(=O)C(=O)N2CCCC[C@H]2C(=O)O[C@H]([C@H](C)C[C@@H]2CC[C@@H](O)[C@H](OC)C2)CC(=O)[C@H](C)/C=C(\C)[C@@H](O)[C@@H](OC)C(=O)[C@H](C)C[C@H](C)/C=C/C=C/C=C/1C [Rapamycin] | 4.24 | 5.03 | – | – | 5.56 | 5.44 | 6.34 | < 3.78 | – | 7.97
4.52 | 4.47 | 4.75 | – | – | 4.77 | 5.81 | Cc1ccc(NC(=O)c2ccc(CN3CCN(C)CC3)cc2)cc1Nc1nccc(-c2cccnc2)n1 [Imatinib] | 4.62 | 4.67 | – | – | 4.63 | 4.71 | 4.36 | – | – | 4.9
7.7 | 7.99 | 7.95 | 7.65 | 8.06 | 7.71 | 8.1 | CC(=O)O[C@H]1C(=O)[C@@]2(C)[C@H]([C@H](OC(=O)c3ccccc3)[C@]3(O)C[C@H](OC(=O)[C@H](O)[C@@H](NC(=O)c4ccccc4)c4ccccc4)C(C)=C1C3(C)C)[C@]1(OC(C)=O)CO[C@@H]1C[C@@H]2O [Paclitaxel] | 8.35 | 8.03 | 8.04 | 7.66 | 8.29 | 8.08 | 8.03 | 7.93 | 7.84 | –
3.45 | 2.66 | 3.96 | 2.97 | 3.62 | 3.18 | 4.77 | O=c1[nH]cc(F)c(=O)[nH]1 [Fluorouracil] | 4.15 | 4.14 | – | – | 3.37 | 5.37 | 4.95 | 3.45 | 3.9 | –
4.96 | 4.97 | 5.14 | – | – | 5.35 | 5.03 | CCN(CC)CCNC(=O)c1c(C)[nH]c(/C=C2\C(=O)Nc3ccc(F)cc32)c1C [Sunitinib malate] | 5.34 | 5.57 | – | – | 5.12 | 5.39 | 5.27 | – | – | 5.21
7.56 | 7.36 | 6.8 | – | – | 7.64 | 8.12 | Cc1ccc(C(=O)N(CCCN)[C@@H](c2nc3cc(Cl)ccc3c(=O)n2Cc2ccccc2)C(C)C)cc1 [Ispinesib] | 7.52 | 7.48 | – | – | 7.39 | 7.57 | 7.4 | – | – | 6.99
6.55 | 6.65 | 6.33 | – | – | 6.49 | 7.37 | O=C1c2ccccc2-[n+]2ccc3c([nH]c4ccccc43)c21 [Fascaplysin] | 6.26 | 6.4 | – | – | 6.38 | 6.58 | 6.43 | – | – | 7.25
7.19 | 2.85 | 6.76 | 7.49 | 7.01 | 6.47 | 4.82 | Nc1ccn([C@@H]2O[C@H](CO)[C@@H](O)C2(F)F)c(=O)n1 [Gemcitabine] | 7.64 | 7.84 | – | – | 6.91 | 7.08 | 7.7 | 3.54 | 7.04 | –
7.29 | 7.95 | 6.42 | 7.57 | 8.01 | 8.45 | 7.89 | CCC1=C[C@@H]2CN(C1)Cc1c([nH]c3ccccc13)[C@@](C(=O)OC)(c1cc3c(cc1OC)N(C)[C@H]1[C@@](O)(C(=O)OC)[C@H](OC(C)=O)[C@]4(CC)C=CCN5CC[C@]31[C@@H]54)C2 [Vinorelbine] | 8.02 | 7.85 | – | – | 8.65 | 7.75 | 7.43 | 7.96 | 8.34 | –
< 3.78 | 6.78 | < 3.78 | 4.51 | – | 4.37 | 4.55 | CC/C(=C(\c1ccccc1)c1ccc(OCCN(C)C)cc1)c1ccccc1 [Tamoxifen] | 4.32 | 4.11 | – | – | 4.46 | < 3.78 | 4.16 | 4.72 | 5.84 | –
4.31 | 4.54 | 4.27 | – | – | 4.32 | 4.14 | CNC(=O)c1cc(Oc2ccc(NC(=O)Nc3ccc(Cl)c(C(F)(F)F)c3)cc2)ccn1 [Sorafenib] | 4.33 | 4.8 | – | – | 4.55 | 4.46 | 4.31 | – | – | 4.6
3.83 | 4.26 | 4.7 | – | – | < 3.78 | 4.02 | CC(C)[C@H](CO)Nc1nc(Nc2cccc(Cl)c2)c2ncn(C(C)C)c2n1 [Purvalanol A] | 4.6 | 4.88 | – | – | 5.09 | 4.74 | 4.29 | – | – | 4.36
